These compounds were tested against T1, histamine H4 receptor (Homo sapiens, UniProt Q9H3N8) (assay: H4 Membrane Binding Assay (3H-Histamine displacement)). Conditions: membranes of recombinant HEK293SFM cells, 10 nM 3H-Histamine, 1.5 hr at room temperature.
T1 construct: expressed in transfected cells; host or cells: HEK293SFM cells (membrane preparation)
In short: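 Membranes from HEK293SFM cells expressing human H4 (also human H1–H3, mouse H4), prepared in ice-cold 50 mM Tris-HCl pH 7.5. [3H]-histamine displacement, nonspecific binding defined with 1000× unlabeled ligand. Bound radioactivity separated on PEI-treated GF/B filters and measured by liquid scintillation counting.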

Structure (SMILES)	IC50 [nM]
CN1CCN(c2cc(-c3ccc4c(c3)CN(C(=O)CC(C)(C#N)C3CC3)CC4)nc(N)n2)CC1 (stereo not shown) [Example 123, 4-[7-[2-Amino-6-(4-methylpiperazin-1-yl)pyrimidin-4-yl]-3,4-dihydroisoquinolin-2(1H)-yl]-2-cyclopropyl-2-methyl-4-oxobutanenitrile]	105
CN1CCN(c2cc(-c3ccc4c(c3)CN(C(=O)CC3CCN(C(=O)c5ccccc5)CC3)CC4)nc(N)n2)CC1 [Example 73, 4-{2-[(1-Benzoylpiperidin-4-yl)acetyl]-1,2,3,4-tetrahydroisoquinolin-7-yl}-6-(4-methylpiperazin-1-yl)pyrimidin-2-amine]	357
CC(C)[C@H](C)NC(=O)N1CCc2ccc(-c3cc(N4CCN(C)CC4)nc(N)n3)cc2C1 [Example 97, 7-[2-Amino-6-(4-methylpiperazin-1-yl)pyrimidin-4-yl]-N-[(1S)-1,2-dimethylpropyl]-3,4-dihydroisoquinoline-2(1H)-carboxamide]	73
CC(C)COC(=O)N1CCc2ccc(-c3cc(N4CCN(C)CC4)nc(N)n3)cc2C1 [Example 10, Isobutyl 7-[2-amino-6-(4-methylpiperazin-1-yl)pyrimidin-4-yl]-3,4-dihydroisoquinoline-2(1H)-carboxylate]	53.4
CC(C)NC(=O)N1CCc2ccc(-c3cc(N4CCN(C)CC4)nc(N)n3)cc2C1 [Example 13, 7-[2-Amino-6-(4-methylpiperazin-1-yl)pyrimidin-4-yl]-N-isopropyl-3,4-dihydroisoquinoline-2(1H)-carboxamide]	57.2
CNC(=O)c1ccc2c(N3CCN(C)CC3)nc(N)nc2c1 [Example 26, 2-Amino-N-methyl-4-(4-methylpiperazin-1-yl)quinazoline-7-carboxamide]	495
COC(=O)NC(C)CC(=O)N1CCc2ccc(-c3cc(N4CCN(C)CC4)nc(N)n3)cc2C1 (stereo not shown) [Example 113, Methyl{3-[7-[2-amino-6-(4-methylpiperazin-1-yl)pyrimidin-4-yl]-3,4-dihydroisoquinolin-2(1H)-yl]-1-methyl-3-oxopropyl}carbamate]	147
CN1CCN(c2cc(-c3cc4c(cc3F)CCN(C(=O)Nc3ccc(Cl)cc3)C4)nc(N)n2)CC1 [Example 75, 7-[2-Amino-6-(4-methylpiperazin-1-yl)pyrimidin-4-yl]-N-(4-chlorophenyl)-6-fluoro-3,4-dihydroisoquinoline-2(1H)-carboxamide]	44
COC(=O)[C@H](Cc1ccc(-c2ccccc2)cc1)NC(=O)c1ccc2c(N3CCN(C)CC3)nc(N)nc2c1 [Example 138, Methyl (2S)-2-({[2-amino-4-(4-methylpiperazin-1-yl)quinazolin-7-yl]carbonyl}amino)-3-biphenyl-4-ylpropanoate]	23
COC(=O)[C@H](Cc1ccc(OC(C)C)cc1)NC(=O)c1ccc2c(N3CCN(C)CC3)nc(N)nc2c1 [Example 134, Methyl (2S)-2-({[2-amino-4-(4-methylpiperazin-1-yl)quinazolin-7-yl]carbonyl}amino)-3-(4-isopropoxyphenyl)propanoate]	29
CCOC(=O)[C@@H]1CCCC[C@@H]1NC(=O)N1CCc2ccc(-c3cc(N4CCN(C)CC4)nc(N)n3)cc2C1 (relative stereo) [Example 53, Ethyl cis-2-({[7-[2-amino-6-(4-methylpiperazin-1-yl)pyrimidin-4-yl]-3,4-dihydroisoquinolin-2(1H)-yl]carbonyl}amino)cyclohexanecarboxylate]	107
CN1CCN(c2cc(-c3ccc4c(c3)CN(C(=O)N3CCC(F)(F)CC3)CC4)nc(N)n2)CC1 [Example 104, 4-{2-[(4,4-Difluoropiperidin-1-yl)carbonyl]-1,2,3,4-tetrahydroisoquinolin-7-yl}-6-(4-methylpiperazin-1-yl)pyrimidin-2-amine]	259
CN1CCN(c2cc(-c3ccc4c(c3)CN(C(=O)Cc3cncc(C#N)c3)CC4)nc(N)n2)CC1 [Example 125, 5-{2-[7-[2-Amino-6-(4-methylpiperazin-1-yl)pyrimidin-4-yl]-3,4-dihydroisoquinolin-2(1H)-yl]-2-oxoethyl}nicotinonitrile]	92
CC(NC(=O)N1CCc2ccc(-c3cc(N4CCN(C)CC4)nc(N)n3)cc2C1)c1ccccc1 (stereo not shown) [Example 51, 7-[2-Amino-6-(4-methylpiperazin-1-yl)pyrimidin-4-yl]-N-(1-phenylethyl)-3,4-dihydroisoquinoline-2(1H)-carboxamide]	63
CN1CCN(c2cc(-c3ccc4c(c3)CN(C(=O)OC3CCCC3)CC4)nc(N)n2)CC1 [Example 7, Cyclopentyl 7-[2-amino-6-(4-methylpiperazin-1-yl)pyrimidin-4-yl]-3,4-dihydroisoquinoline-2(1H)-carboxylate]	43.3
CO[C@H]1CC[C@H](NC(=O)N2CCc3ccc(-c4cc(N5CCN(C)CC5)nc(N)n4)cc3C2)CC1 [Example 56, 7-[2-Amino-6-(4-methylpiperazin-1-yl)pyrimidin-4-yl]-N-(trans-4-methoxycyclohexyl)-3,4-dihydroisoquinoline-2(1H)-carboxamide]	210
CN1CCN(c2cc(-c3ccc4c(c3)CN(C(=O)Cn3cccn3)CC4)nc(N)n2)CC1 [Example 112, 4-(4-Methylpiperazin-1-yl)-6-[2-(1H-pyrazol-1-ylacetyl)-1,2,3,4-tetrahydroisoquinolin-7-yl]pyrimidin-2-amine]	337
CN1CCN(c2nc(N)nc3cc(C(=O)NCC4CC4)ccc23)CC1 [Example 25, 2-Amino-N-(cyclopropylmethyl)-4-(4-methylpiperazin-1-yl)quinazoline-7-carboxamide]	579

The next lines start with the values.

IC50 [nM]	Structure (SMILES)
15	CN1CCN(c2nc(N)nc3cc(C(=O)NC(Cc4cccc(Oc5cc(Cl)cc(Cl)c5)c4)C(=O)N(C)C)ccc23)CC1 (stereo not shown) [Example 167, 2-Amino-N-[1-[3-(3,5-dichlorophenoxy)benzyl]-2-(dimethylamino)-2-oxoethyl]-4-(4-methylpiperazin-1-yl)quinazoline-7-carboxamide]
7.1	COC(=O)c1cccc(COc2cccc(C(C)NC(=O)c3ccc4c(N5CCN(C)CC5)nc(N)nc4c3)c2)c1 (stereo not shown) [Example 200, Methyl 3-({3-[1-({[2-amino-4-(4-methylpiperazin-1-yl)quinazolin-7-yl]carbonyl}amino)ethyl]phenoxy}methyl)benzoate]
56	CN1CCN(c2nc(N)nc3cc(C(=O)NC(Cc4cccc(OCc5ccc(OC(F)(F)F)cc5)c4)C(=O)N(C)C)ccc23)CC1 (stereo not shown) [Example 177, 2-Amino-N-[2-(dimethylamino)-2-oxo-1-(3-{[4-(trifluoromethoxy)benzyl]oxy}benzyl)ethyl]-4-(4-methylpiperazin-1-yl)quinazoline-7-carboxamide]
71	CC(Cc1cc2ccccc2o1)NC(=O)c1ccc2c(N3CCN(C)CC3)nc(N)nc2c1 (stereo not shown) [Example 141, 2-Amino-N-[2-(1-benzofuran-2-yl)-1-methylethyl]-4-(4-methylpiperazin-1-yl)quinazoline-7-carboxamide]
8.7	COc1cc(COc2cccc(CNC(=O)c3ccc4c(N5CCN(C)CC5)nc(N)nc4c3)c2)cc(OC)c1 [Example 194, 2-Amino-N-{3-[(3,5-dimethoxybenzyl)oxy]benzyl}-4-(4-methylpiperazin-1-yl)quinazoline-7-carboxamide]
18	CN1CCN(c2nc(N)nc3cc(C(=O)N[C@@H](Cc4ccc(-c5cccs5)cc4)C(=O)N(C)C)ccc23)CC1 [Example 148, 2-Amino-N-{(1S)-2-(dimethylamino)-2-oxo-1-[4-(2-thienyl)benzyl]ethyl}-4-(4-methylpiperazin-1-yl)quinazoline-7-carboxamide]
11	CN1CCN(c2nc(N)nc3cc(C(=O)NC4CCCc5ccc(OCc6ccc(C#N)cc6)cc54)ccc23)CC1 (stereo not shown) [Example 205, 2-Amino-N-(7-(4-cyanobenzyloxy)-1,2,3,4-tetrahydronaphthalen-1-yl)-4-(4-methylpiperazin-1-yl)quinazoline-7-carboxamide]
16	CN1CCN(c2nc(N)nc3cc(C(=O)NCc4cccc(Oc5nccc6ccccc56)c4)ccc23)CC1 [Example 181, 2-Amino-N-[3-(isoquinolin-1-yloxy)benzyl]-4-(4-methylpiperazin-1-yl)quinazoline-7-carboxamide]
23	COc1ccc(C#N)c(Oc2cccc(CC(NC(=O)c3ccc4c(N5CCN(C)CC5)nc(N)nc4c3)C(=O)N(C)C)c2)c1 (stereo not shown) [Example 170, 2-Amino-N-[1-[3-(2-cyano-5-methoxyphenoxy)benzyl]-2-(dimethylamino)-2-oxoethyl]-4-(4-methylpiperazin-1-yl)quinazoline-7-carboxamide]
51	CC(Oc1cccc(CC(NC(=O)c2ccc3c(N4CCN(C)CC4)nc(N)nc3c2)C(=O)N(C)C)c1)c1cccc(C(F)(F)F)c1 (stereo not shown) [Example 176, 2-Amino-N-[2-(dimethylamino)-2-oxo-1-(3-{1-[3-(trifluoromethyl)phenyl]ethoxy}benzyl)ethyl]-4-(4-methylpiperazin-1-yl)quinazoline-7-carboxamide]
34	CN1CCN(c2nc(N)nc3cc(C(=O)NC(Cc4ccc5c(c4)OC(F)(F)O5)C(=O)N(C)C)ccc23)CC1 (stereo not shown) [Example 145, 2-Amino-N-[1-[(2,2-difluoro-1,3-benzodioxol-5-yl)methyl]-2-(dimethylamino)-2-oxoethyl]-4-(4-methylpiperazin-1-yl)quinazoline-7-carboxamide]
519	CN1CCN(c2nc(N)nc3cc(C(=O)NC(Cc4ccc5c(c4)OC(F)(F)O5)C(=O)N(C)C)ccc23)CC1 (single isomer, unassigned) [Example 145A]
55	CN1CCN(c2nc(N)nc3cc(C(=O)N[C@@H](Cc4ccc(-c5ccc(C#N)cn5)cc4)C(=O)N(C)C)ccc23)CC1 [Example 155, 2-Amino-N-[(1S)-1-[4-(5-cyanopyridin-2-yl)benzyl]-2-(dimethylamino)-2-oxoethyl]-4-(4-methylpiperazin-1-yl)quinazoline-7-carboxamide]

Reference: patent US8481732B2 (Incyte Corporation, priority 2009, dated 2013)
